The record followed here is patent publication US20250123267A1, “INHIBITORS OF MICROTUBULE POLYGLUTAMYLATION IN MITOSIS FOR USE AS A MEDICAMENT” (FUNDACIÓ CENTRE DE REGULACIÓ GENÒMICA, priority 2021, published 2025).

Type in all cases: in vivo, Danio rerio
In data set [1] the test system is zebrafish embryos. Put plainly: Morphological zebrafish analysis at 36 hpf after morpholino injection. How it is done:
(§1) Morpholino antisense oligonucleotides were designed and purchased from Gene Tools, LLC. To inhibit ttll11 we used a blocking translation SEQ ID NO: 22 MO ([…]) and a standard control SEQ ID NO: 23 MO ([…]) as a negative control. We injected 2.8 ng of morpholino into one-cell stage embryos.
(§2) All capped mRNAs were synthesized using mMessage mMachine SP6 (Ambion, AM1340M). For the rescue experiments, […] of ttll11 mRNA was injected together with the indicated MO. […] of E466G mRNA (ttll11 mutated version) was injected together with the indicated MO as a negative control of the rescue experiments. GFP-Ttll11 mRNA was injected into one-cell stage embryos to visualize protein localization.
Zebrafish embryos at 36 hpf were anaesthetized with tricaine methane sulfonate (MS-222, Sigma Aldrich) The morphological phenotype was evaluated on site with an Olympus SZX16 scope equipped with an Olympus DP73 camera. Representative images were analyzed with ImageJ.

Data set [2] has as its system zebrafish embryos. Put plainly: Chromosome segregation in blastula stage zebrafish embryos (live and fixed imaging). How it is done: as §1
Zebrafish embryos at the sphere stage (2.5-4 hpf) were dechorionated and incubated overnight at RT shacking in the microtubule fixative solution (20). The MT-fixative was discarded, and the embryos were put in methanol at −20° C. overnight. After fixation was completed zebrafish embryos were transferred in a clean tube and washed 3 times during 5 min with tergitol at room temperature for rehydration. Embryos were then moved to a well of a 96-well plate and an overnight wash with the anti-autofluorescence buffer (PBS 1×, 100 mM NaBH4) was performed at RT gently shacking. Buffer in the well was changed with TBS 1× for 5 extensive washes.
Embryos underwent the blocking step with TBS 1× with 2% BSA for 30 minutes RT gently shacking. Anti-polyE (1.1 μg/ml, home-made) and -β-tubulin (clone E7; Hybridoma Bank at University of Iowa) primary antibodies were added both at 1:200 dilution and left ON at 4° C. gently shacking. […]
Fixed embryos were imaged in glass bottom Mattek dishes using a 63× oil-immersion 1.4 NA objective on a TCS SP5 inverted Leica confocal microscope. Laser intensity used changed through experiments according to the tubulin levels detected.
For zfTTLL11 localization experiments zebrafish eggs were fertilized, collected and microinjected with zfTTLL11 mRNA with a micromanipulator (M3301R, WPI (World precision instruments). The quantity injected are relative to the ones specified in “Morpholinos, mRNA synthesis and microinjection” section, according to de experiment. Embryos at sphere stage were manually dechorionated and moved in a tube containing low melting agarose at 42° C. diluted in TBS 1× and immediately in a Mattek dish with 7 mm diameter glass bottom and oriented with epithelial layer cells toward the glass slide before the agarose solidified. […]

Data set [3] concerns zebrafish embryos. Put plainly: Embryonic lethality of morpholino injected zebrafish embryos. The note with it: first 4 hours of development. How it is done:
as §1, §2

Setting [4] is: 36 hpf, injected at one-cell stage.

Take “MO-1: blocking translation morpholino against zebrafish ttll11, SEQ ID NO: 22 (CGGCTGATTTGTTATCTCATCTAGG) (all phosphorodiamidate morpholino (PMO))”: in data set [1] (setting [4]), the “phenotype Frequency Mild (%)” value was found to be 28.6%, the “phenotype Frequency Normal (%)” value is 14.3% and the “phenotype Frequency Severe (%)” value is 57.1%. Moreover, the “embryos with developmental defects” value in data set [1] (injected embryos, mild tilted tails to gross abnormalities) was 60%. Also, in data set [2] (blastula stage, 4D time-lapse imaging), the “embryos with at least one anaphase cell with a lagging chromosome” value is on record as “Most”. Also, the “chromosome segregation fidelity in fixed embryos” value in data set [2] (fixed embryos, anaphase cells with lagging chromosomes) was “compromised”. Further, the cells with micronuclei result in data set [2] (injected embryos) is “many cells with micronuclei”. Further, the embryonic lethality entry in data set [3] was “increase of embryonic lethality”.
